Test results reported in US20120238488A1, “COMPOUNDS AND METHODS FOR TREATING NEOPLASIA” (priority 2009, published 2012).

Columns and labels:
[1] = tested on: Na+/K+-ATPase (Adenosine 5′-Triphosphatase isolated from porcine cerebral cortex); test: Na+/K+-ATPase inhibitory activity, colorimetric Adenosine 5'-Triphosphatase Enzymatic Assay; format: biochemical; conditions: for IC50: read-out: Na+K+ ATPase inhibitory activity IC50
Protocol: The inhibitory effect of a compound of the invention on ATPase activity was assessed in vitro using the colorimetric Adenosine 5′-Triphosphatase Enzymatic Assay of Sigma (St. Louis, Mo.) according to the manufacturer's instructions. This assay utilizes Adenosine 5′-Triphosphatase isolated from porcine cerebral cortex. Each reaction was performed in a final volume of 250 μl using 0.5 units/ml enzyme in the presence of different inhibitors. […] IC50 values were determined using the Origin® program software (OriginLab, Northampton, Mass.).

[2] = tested on: A549 (Lung); test: SRB assay, A549; format: cell-based, human; conditions: for TGI / GI50: A549, SRB, 48 h; for CC50 / GI50: Homo sapiens; for CC50: A549, 48 h, read-out: LC50
Protocol: (§1) SRB assays were performed according to standard National Cancer Institute Guidelines. Briefly, human tumor cells from different cancer panels were seeded into 96 well plates in 100 μL (plating densities ranging from 5-40,000 cells/well depending on the doubling time of individual cell lines) in serum-containing media for twenty-four hours prior to the addition of the compounds to be assayed. After 24 hours, one plate of each cell line was fixed in situ with trichloroacetic acid (TCA). The fixed slides were used to determine the cell population for each cell line at the time of drug addition (Tz). Each compound to be tested was solubilized in DMSO and the desired concentration was then added to the medium and diluted serially 1:10 to provide a total of five or ten drug concentrations plus control (in a final volume of 200 μL). The starting dose before any dilution was 100 uM for all compounds.
(§2) Following drug addition, each culture was incubated for forty-eight hours. The assay was terminated with the addition of cold TCA. The supernatant was discarded, and the plates were washed with tap water and air dried. Sulforhodamine B (SRB) solution was then added to each well. After staining, the bound stain was solubilized and the absorbance was read on an automated plate reader at a wavelength of 515 nm.
(§3) Using the absorbance measurements [time zero, (Tz), control growth, (C), and test growth in the presence of drug at the ten concentration levels (Ti)], the percentage growth was calculated at each of the drug concentrations levels. Percentage growth inhibition was calculated as:
(§4) [(Ti−Tz)/(C−Tz)]×100 for concentrations for which Ti>/=Tz
(§5) [(Ti−Tz)/Tz]×100 for concentrations for which Ti<Tz.
(§6) Three dose response parameters were calculated for each experimental agent. Growth inhibition of 50% (GI50) was calculated from [(Ti−Tz)/(C−Tz)]×100=50, which was the drug concentration resulting in a 50% reduction in the net protein increase (as measured by SRB staining) in control cells during the drug. The drug concentration resulting in total growth inhibition (TGI) was calculated from Ti=Tz. The LC50 (concentration of drug resulting in a 50% reduction in the measured protein at the end of the drug treatment as compared to that at the beginning) indicating a net loss of cells following treatment was calculated from [(Ti−Tz)/Tz]×100=−50.
(§7) Values were calculated for each of these three parameters when the level of activity was reached; however, if the effect was not reached or was exceeded, the value for that parameter was expressed as greater or less than the maximum or minimum concentration tested.
(§8) Table 4 summarizes results characterizing the effects of compound Nos. 120, 12, 61, 1, and 56 on GI50, which measures the cell growth inhibitory power of the compound, TGI, which measures cytostatic effect (TGI) and LC50, which signifies cytotoxic effect. Each of these parameters in Table 4 was calculated in a sulforhodamine B (SRB) assay, which provides a colorimetric measure of a compound's anti-cancer activity. SRB assays were performed with compounds of the invention in 22 different cell lines (shaded in light gray in Table 4), which represent nine different tumor panels (lung, melanoma, ovary, prostate, CNS, breast, pancreas colon and renal). Ouabain and digoxin were used as controls. Paclitaxel was added as a non-Na^+K^+-ATPase inhibitor control.

[3] = tested on: ERVK (Lung); test: SRB assay, ERVK; format: cell-based, human; conditions: 48 h; for TGI / GI50: ERVK, SRB; for CC50 / GI50: Homo sapiens; for CC50: read-out: LC50
Protocol: as §1, §2, §3, §4, §5, §6, §7, §8

[4] = tested on: SKMEL28 (Melanoma); test: SRB assay, SKMEL28; format: cell-based, human; conditions: for CC50 / GI50: Homo sapiens; for CC50: SK-MEL-28, 48 h, read-out: LC50; for GI50: SK-MEL-28; for GI50 / TGI: SKMEL28, SRB, 48 h
Protocol: as §1, §2, §3, §4, §5, §6, §7, §8

[5] = tested on: MB435 (Melanoma); test: SRB assay, MB435; format: cell-based, human; conditions: 48 h; for CC50 / GI50: Homo sapiens; for CC50: read-out: LC50; for GI50 / TGI: MB435, SRB
Protocol: as §1, §2, §3, §4, §5, §6, §7, §8

[6] = tested on: OVCAR5 (Ovary); test: SRB assay, OVCAR5; format: cell-based, human; conditions: for CC50 / GI50: Homo sapiens; for CC50: OVCAR-5, 48 h, read-out: LC50; for GI50: OVCAR-5; for GI50 / TGI: OVCAR5, SRB, 48 h
Protocol: as §1, §2, §3, §4, §5, §6, §7, §8

[7] = tested on: OVCAR3 (Ovary); test: SRB assay, OVCAR3; format: cell-based, human; conditions: for CC50 / GI50: Homo sapiens; for CC50: OVCAR-3, 48 h, read-out: LC50; for GI50: OVCAR-3; for GI50 / TGI: OVCAR3, SRB, 48 h
Protocol: as §1, §2, §3, §4, §5, §6, §7, §8

[8] = tested on: ADRRES (Ovary); test: SRB assay, ADRRES (multidrug resistant NCI-ADR-RES); format: cell-based, human; conditions: for TGI / GI50: ADRRES; for TGI / CC50 / GI50: 48 h; for CC50 / GI50: Homo sapiens, NCI/ADR-RES; for CC50: read-out: LC50; for anti-tumor action in multidrug resistant cell line NCI-ADR-RES: cells express high levels of MDR1 and P-glycoprotein
Protocol: NCI-ADR-RES cells have been classified as ovarian cancer cells by the National Cancer Institute.
as §1, §2, §3, §4, §5, §6, §7, §8
Table 4 also presents results with Compound Nos. 120, 12, 61, 1, and 56 in a well characterized drug resistant cell line, NCI-ADR-RES, that expresses high levels of MDR1 and P-glycoprotein.

[9] = tested on: DU145 (Prostate); test: SRB assay, DU145; format: cell-based, human; conditions: for TGI / GI50: DU145, SRB, 48 h; for CC50 / GI50: Homo sapiens; for CC50: DU-145, 48 h, read-out: LC50; for GI50: DU-145
Protocol: as §1, §2, §3, §4, §5, §6, §7, §8

[10] = tested on: PCJ (Prostate); test: SRB assay, PCJ; format: cell-based; conditions: Homo sapiens, 48 h; for CC50: read-out: LC50; for GI50 / IC (TGI): PCJ, SRB
Protocol: as §1, §2, §3, §4, §5, §6, §7, §8

[11] = tested on: SF268 (CNS); test: SRB assay, SF268; format: cell-based; conditions: Homo sapiens; for CC50: SF-268, 48 h, read-out: LC50; for GI50 / IC (TGI): SF-268, SF268, SRB, 48 h; for GI50: read-out: GI50; for IC (TGI): read-out: TGI
Protocol: as §1, §2, §3, §4, §5, §6, §7, §8

[12] = tested on: HCT116 (Colon); test: SRB assay, HCT116; format: cell-based; conditions: Homo sapiens; for CC50: HCT-116, 48 h, read-out: LC50; for GI50 / IC (TGI): HCT-116, HCT116, SRB, 48 h
Protocol: as §1, §2, §3, §4, §5, §6, §7, §8

[13] = tested on: CAKJ1 (Renal); test: SRB assay, CAKJ1; format: cell-based, human; conditions: 48 h; for TGI / GI50: CAKJ1, SRB; for CC50 / GI50: Homo sapiens; for CC50: read-out: LC50
Protocol: as §1, §2, §3, §4, §5, §6, §7, §8

SMILES	TGI [2] [nM]	CC50 [2] [nM]	GI50 [2] [nM]	CC50 [4] [nM]	GI50 [4] [nM]	TGI [4] [nM]	TGI ([8]; SRB) [nM]	CC50 [8] [nM]	GI50 ([8]; SRB) [nM]	TGI [9] [nM]	CC50 [9] [nM]	GI50 [9] [nM]	CC50 [10] [nM]	GI50 [10] [nM]	IC (TGI) [10] [nM]	CC50 [11] [nM]	GI50 [11] [nM]	IC (TGI) [11] [nM]	CC50 [12] [nM]	GI50 [12] [nM]	other results
C[C@]12CCC(=NOCCN)CC1CCC1C2CC[C@]2(C)C(=O)CCC12 (stereo partly drawn) [Compound 1, (10S,13S)-3-(2-aminoethoxyimino)-10,13-dimethyltetradecahydro-1H-cyclopenta[a]phenanthren-17(2H)-one]	582.5	850	315	7540	517	928.4	647.9	944	321	588.2	844	332	897	253	575	908	385	647	8100	364	Na+K+ ATPase inhibitory activity (in words) [1]: very potent Na+K+ ATPase inhibitors; IC50 [1]: 124 nM; TGI [3]: 640.6 nM; CC50 [3]: 943 nM; GI50 [3]: 338 nM; CC50 [5]: 6380 nM; GI50 [5]: 598 nM; TGI [5]: 1399.5 nM; CC50 [6]: 7320 nM; GI50 [6]: 834 nM; TGI [6]: 3763 nM; CC50 [7]: 984 nM; GI50 [7]: 291 nM; TGI [7]: 637.5 nM; anti-tumor action in multidrug resistant cell line NCI-ADR-RES ([8]; SRB): potent anti-tumor action; IC (TGI) [12]: 1310 nM; TGI [13]: 643 nM; CC50 [13]: 948 nM; GI50 [13]: 338 nM
C[C@]12CCC(=NOCCN)C=C1CCC1C2CC[C@]2(C)C(=O)CCC12 (stereo partly drawn) [Compound 12, (10R,13S)-3-(2-aminoethoxyimino)-10,13-dimethyl-2,3,7,8,9,10,11,12,13,14,15,16-dodecahydro-1H-cyclopenta[a]phenanthren-17(6H)-one]	6900	9730	4080	85600	8390	40160	6580	10100	3080	5750	8450	3040	8520	3540	6030	8510	2840	5670	10700	4060	Na+K+ ATPase inhibitory activity (in words) [1]: strong Na+K+ ATPase inhibitory activities; IC50 [1]: 375 nM; TGI [3]: 5130 nM; CC50 [3]: 8800 nM; GI50 [3]: 1450 nM; CC50 [5]: 75800 nM; GI50 [5]: 5450 nM; TGI [5]: 10240 nM; CC50 [6]: 63600 nM; GI50 [6]: 5300 nM; TGI [6]: 9020 nM; CC50 [7]: 88800 nM; GI50 [7]: 3010 nM; TGI [7]: 28790 nM; GI50 in NCI-ADR-RES cells compared to non-resistant MCF-7 cells ([8]; SRB): the same GI50 value; anti-tumor action in multidrug resistant cell line NCI-ADR-RES ([8]; SRB): potent anti-tumor action; IC (TGI) [12]: 7380 nM; TGI [13]: 6560 nM; CC50 [13]: 9440 nM; GI50 [13]: 3690 nM
C[C@]12CCC(=NOC3CCNC3)CC1CCC1C2CC[C@]2(C)C(=O)CCC12 (stereo partly drawn) [Compound 56, (10S,13S)-10,13-dimethyl-3-(pyrrolidin-3-yloxyimino)tetradecahydro-1H-cyclopenta[a]phenanthren-17(2H)-one]	4	8.2	< 1	3740	40.9	225.3	49.1	90.8	9.3	22	70.6	5	936	33.2	387	810	56.7	349	762	5.8	Na+K+ ATPase inhibitory activity (in words) [1]: very potent Na+K+ ATPase inhibitors; IC50 [1]: 101 nM; TGI [3]: 62.8 nM; CC50 [3]: 288 nM; GI50 [3]: 17.9 nM; CC50 [5]: 668 nM; GI50 [5]: 48.5 nM; TGI [5]: 218.2 nM; CC50 [6]: 740 nM; GI50 [6]: 74.9 nM; TGI [6]: 341.1 nM; CC50 [7]: 170 nM; GI50 [7]: 2.9 nM; TGI [7]: 11.4 nM; anti-tumor action in multidrug resistant cell line NCI-ADR-RES ([8]; SRB): potent anti-tumor action; IC (TGI) [12]: 70.5 nM; TGI [13]: 26.5 nM; CC50 [13]: 172 nM; GI50 [13]: < 1 nM
CC(=O)O[C@H]1C(=O)[C@@]2(C)[C@H]([C@H](OC(=O)c3ccccc3)[C@]3(O)C[C@H](OC(=O)[C@H](O)[C@@H](NC(=O)c4ccccc4)c4ccccc4)C(C)=C1C3(C)C)[C@]1(OC(C)=O)CO[C@@H]1C[C@@H]2O [Paclitaxel, reference compound]	6138.4	15300	< 1	> 10000	2300	>10000	5803.4	10600	1050	8.6	143	< 1	> 10000	< 100	> 10000	> 10000	< 100	1930	> 10000	< 100	IC (TGI) [12]: 2240 nM; TGI [13]: 4969 nM; CC50 [13]: 11600 nM; GI50 [13]: < 1 nM
